Assay results published in US12246076B2, “Radiolabeled compounds for in vivo imaging of gastrin-releasing peptide receptor (GRPR) and treatment of GRPR-related disorders” (PROVINCIAL HEALTH SERVICES AUTHORITY, priority 2022, dated 2025).
Numbered stars: 1 amine (or outer) side, 2 acyl side, 3 side chain; on linkers, the order of the positions; unused ones are H or OH. Square brackets hold non-standard residues; d marks the D form. Peptide text beside a SMILES is read from it. * marks the point of attachment. DOTA = O=C(O)CN1CCN(CC(=O)O)CCN(CC(=O)*)CCN(CC(=O)O)CC1; Leuψ(CH2N)ThzNH2 = CC(C)C[C@@H](CN1CSC[C@H]1C(N)=O)N*; NMeH = CN[C@@H](Cc1c[nH]cn1)C(=O)O; X1 = O=C(CN1CCC(N[*:1])CC1)[*:2]; Tle = CC(C)(C)[C@H](N)C(=O)O; Thz = O=C(O)[C@@H]1CSCN1

Tests used:
[1] = target: T1, GRPR (Homo sapiens, UniProt P30550); test: In vitro competition binding assay, displacement of [^125I-Tyr^4]bombesin on GRPR-expressing PC-3 cells; conditions: n = 2-3, read-out: Binding affinities Ki Mean
T1 construct: endogenous in cells; host or cells: PC-3 prostate cancer cells
Experimental: PC-3 cells were seeded at 2×10^5 cells/well in 24-well poly-D-lysine plates 24-48 hours prior to the experiment. The growth medium was replaced by 400 μL of reaction medium (RPMI 1640 containing 2 mg/mL BSA, 4.8 mg/mL HEPES, 1 U/mL penicillin G and 1 μg/mL streptomycin). Cells were incubated for 30-60 min at 37° C. […] The cells were incubated with moderate agitation for 1 h at 27° C., washed twice with ice-cold PBS, harvested by trypsinization, and measured for radioactivity on the gamma counter. Data were analyzed using nonlinear regression (one binding site model for competition assay) with GraphPad Prism 8.
In vitro competition binding assays were performed according to the procedure outlined in Example 1.

[2] = in vivo; conditions: male, NRG, mouse, iv, total radioactivity
Experimental: (§1) All imaging and biodistribution studies were performed using male NOD.Cg-Rag1^tm1MoM II2rg^tm1WI/SzJ (NRG) mice and conducted according to the guidelines established by the Canadian Council on Animal Care and approved by Animal Ethics Committee of the University of British Columbia. For tumor inoculations, mice were anesthetized by inhalation with 2% isoflurane in oxygen and implanted subcutaneously with 5×10^6 PC-3 cells below the left shoulder. Imaging and biodistribution studies were performed only after tumors grew to 5-8 mm in diameter.
(§2) For PET/CT imaging studies, ˜3-4 MBq of the ^68Ga-labeled tracer was injected through the tail vein. Mice were allowed to recover and roam freely in the cages after injecting the tracer. At 45 min post-injection (p.i.), mice were sedated again and positioned on the scanner. First, a 10 min CT scan was conducted for localization and attenuation correction for reconstruction of PET images, before a 10 min PET image was acquired. Heating pads were used during the entire procedure to keep the mice warm. For ex vivo biodistribution studies, mice were injected with ˜1.5-3 MBq of the ^68Ga-labeled tracer. At 1 h p.i., mice were euthanized, blood was drawn from heart, and organs/tissues of interest were collected, rinsed with PBS, blotted dry, weighed, and counted using an automated gamma counter. The uptake in each organ/tissue was normalized to the injected dose and expressed as the percentage of the injected dose per gram of tissue (% ID/g).
(§3) All imaging and biodistribution studies were performed using male NOD.Cg-Rag1tm1Mom II2rgtm1WjI/SzJ (NRG) mice and conducted according to the guidelines established by the Canadian Council on Animal Care and approved by Animal Ethics Committee of the University of British Columbia. For tumor inoculations, mice were anesthetized by inhalation with 2% isoflurane in oxygen and implanted subcutaneously with 5×10^6 PC-3 cells below the left shoulder. Imaging and biodistribution studies were performed only after tumors grew to 5-8 mm in diameter.
(§4) For PET/CT imaging studies, ˜5 MBq of the ^68Ga-labeled tracer was injected through the tail vein. Mice were allowed to recover and roam freely in the cages after injecting the tracer. At 45 min post-injection (p.i.), mice were sedated again and positioned on the scanner. First, a 10 min CT scan was conducted for localization and attenuation correction for reconstruction of PET images, before a 10 min PET image was acquired. Heating pads were used during the entire procedure to keep the mice warm. For ex vivo biodistribution studies, mice were injected with ˜3 MBq of the 68Ga-labeled tracer. At 1 h p.i., mice were euthanized, blood was drawn from heart, and organs/tissues of interest were collected, rinsed with PBS, blotted dry, weighed, and counted using an automated gamma counter.

[3] = Ex vivo biodistribution in PC-3 tumor-bearing mice; conditions: male, NRG, mouse, iv, total radioactivity, 1 h post-injection, mice bearing PC-3 tumor xenografts, n = 4
Experimental: as §1, §2, §3, §4

[4] = Biodistribution Large Intestine Mean
[5] = Biodistribution Small Intestine Mean
[6] = PC-3 tumor, Biodistribution PC3 tumor Mean
[7] = seminal, Biodistribution Seminal Mean

T1 sequence (P30550 whole entry): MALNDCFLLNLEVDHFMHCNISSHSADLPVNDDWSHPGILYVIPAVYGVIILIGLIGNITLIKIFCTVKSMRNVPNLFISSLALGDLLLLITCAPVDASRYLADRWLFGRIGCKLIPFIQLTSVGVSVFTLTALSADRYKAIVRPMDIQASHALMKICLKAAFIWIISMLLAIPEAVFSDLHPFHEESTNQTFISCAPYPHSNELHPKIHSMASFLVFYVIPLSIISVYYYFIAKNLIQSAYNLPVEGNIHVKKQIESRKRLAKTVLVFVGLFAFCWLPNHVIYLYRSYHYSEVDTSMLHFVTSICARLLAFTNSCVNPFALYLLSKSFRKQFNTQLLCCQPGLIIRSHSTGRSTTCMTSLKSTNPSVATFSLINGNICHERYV

Structure (SMILES) | Ki [1] | tissue uptake at 1 h ([2]; Biodistribution Adrenal Mean) | tissue uptake at 1 h ([2]; Biodistribution Blood Mean) | tissue uptake at 1 h ([2]; Biodistribution Bone Mean) | tissue uptake at 1 h ([2]; Biodistribution Brain Mean) | tissue uptake at 1 h ([2]; Biodistribution Fat Mean) | tissue uptake at 1 h ([2]; Biodistribution Heart Mean) | tissue uptake at 1 h ([2]; Biodistribution Kidneys Mean) | tissue uptake at 1 h [2, 4] | tissue uptake at 1 h ([2]; Biodistribution Liver Mean) | tissue uptake at 1 h ([2]; Biodistribution Lungs Mean) | tissue uptake at 1 h ([2]; Biodistribution Muscle Mean) | tissue uptake at 1 h [2, 5] | tissue uptake at 1 h ([2]; Biodistribution Spleen Mean) | tissue uptake at 1 h ([2]; Biodistribution Stomach Mean) | tissue uptake at 1 h ([2]; Biodistribution Testes Mean) | tissue uptake at 1 h [3, 6] | tissue uptake at 1 h [3, 7] | other results
CC(C)C[C@H](NC(=O)[C@H](Cc1cnc[nH]1)N(C)C(=O)CNC(=O)[C@@H](NC(=O)[C@H](C)NC(=O)[C@H](Cc1c[nH]c2ccccc12)NC(=O)[C@H](CCC(N)=O)NC(=O)[C@@H](Cc1ccccc1)NC(=O)CN1CCC(NC(=O)CN2CCN(CC(=O)O)CCN(CC(=O)O)CCN(CC(=O)O)CC2)CC1)C(C)(C)C)C(=O)N1CSC[C@H]1C(N)=O [^68Ga-LW01110, metal not drawn] |  | 1.64 %ID/g | 0.69 %ID/g | 0.12 %ID/g | 0.03 %ID/g | 0.09 %ID/g | 0.23 %ID/g | 3.26 %ID/g | 1.27 %ID/g | 0.41 %ID/g | 0.59 %ID/g | 0.14 %ID/g | 2.11 %ID/g | 0.29 %ID/g | 0.94 %ID/g | 0.16 %ID/g | 16.6 %ID/g | 0.1 %ID/g | tissue uptake at 1 h ([2]; Biodistribution Pancreas Mean): 8.99 %ID/g
CC(C)C[C@H](NC(=O)[C@H](Cc1cnc[nH]1)N(C)C(=O)CNC(=O)[C@@H](NC(=O)[C@H](C)NC(=O)[C@H](Cc1c[nH]c2ccccc12)NC(=O)[C@H](Cc1c[nH]cn1)NC(=O)[C@@H](Cc1ccccc1)NC(=O)CN1CCC(NC(=O)CN2CCN(CC(=O)O)CCN(CC(=O)O)CCN(CC(=O)O)CC2)CC1)C(C)(C)C)C(=O)N1CSC[C@H]1C(N)=O [^68Ga-LW01142, metal not drawn] ({DOTA}-[X1][dF]HWA[Tle]G[NMeH]L[Thz]-NH2) |  | 2.07 %ID/g | 6.88 %ID/g | 0.47 %ID/g | 0.15 %ID/g | 0.32 %ID/g | 1.62 %ID/g | 6.36 %ID/g | 1.07 %ID/g | 2.88 %ID/g | 4.59 %ID/g | 0.52 %ID/g | 1.7 %ID/g | 0.88 %ID/g | 0.98 %ID/g | 1.28 %ID/g | 11.4 %ID/g | 0.33 %ID/g | tissue uptake at 1 h ([2]; Biodistribution Pancreas Mean): 4.4 %ID/g
CC(C)C[C@@H](CN1CSC[C@H]1C(N)=O)NC(=O)[C@H](Cc1c[nH]cn1)NC(=O)CNC(=O)[C@@H](NC(=O)[C@H](C)NC(=O)[C@H](Cc1c[nH]c2ccccc12)NC(=O)[C@H](CCC(N)=O)NC(=O)[C@@H](Cc1ccccc1)NC(=O)CN1CCC(NC(=O)CN2CCN(CC(=O)O)CCN(CC(=O)O)CCN(CC(=O)O)CC2)CC1)C(C)(C)C [^68Ga-LW01158, metal not drawn] ({DOTA}-[X1][dF]QWA[Tle]GH-{Leuψ(CH2N)ThzNH2}) |  | 1.37 %ID/g | 1.14 %ID/g | 0.13 %ID/g | 0.03 %ID/g | 0.07 %ID/g | 0.34 %ID/g | 2.98 %ID/g | 1.41 %ID/g | 4.33 %ID/g | 1.19 %ID/g | 0.2 %ID/g | 2.46 %ID/g | 0.6 %ID/g | 1.3 %ID/g | 0.24 %ID/g | 11.2 %ID/g | 0.15 %ID/g | tissue uptake at 1 h ([3]; pancreas, Biodistribution Pancreas Mean): 12 %ID/g

Continued, in another order:

Ki [1] | tissue uptake at 1 h ([2]; Biodistribution Adrenal Mean) | tissue uptake at 1 h ([2]; Biodistribution Blood Mean) | tissue uptake at 1 h ([2]; Biodistribution Bone Mean) | tissue uptake at 1 h ([2]; Biodistribution Brain Mean) | tissue uptake at 1 h ([2]; Biodistribution Fat Mean) | tissue uptake at 1 h ([2]; Biodistribution Heart Mean) | tissue uptake at 1 h ([2]; Biodistribution Kidneys Mean) | tissue uptake at 1 h [2, 4] | tissue uptake at 1 h ([2]; Biodistribution Liver Mean) | tissue uptake at 1 h ([2]; Biodistribution Lungs Mean) | tissue uptake at 1 h ([2]; Biodistribution Muscle Mean) | tissue uptake at 1 h [2, 5] | tissue uptake at 1 h ([2]; Biodistribution Spleen Mean) | tissue uptake at 1 h ([2]; Biodistribution Stomach Mean) | tissue uptake at 1 h ([2]; Biodistribution Testes Mean) | tissue uptake at 1 h [3, 6] | tissue uptake at 1 h [3, 7] | Structure (SMILES) | other results
25.9 nM |  |  |  |  |  |  |  |  |  |  |  |  |  |  |  |  |  | Cc1cccc2[nH]cc(C[C@H](NC(=O)[C@H](CCC(N)=O)NC(=O)[C@H](N)Cc3ccccc3)C(=O)N[C@@H](C)C(=O)N[C@H](C(=O)NCC(=O)N[C@@H](Cc3c[nH]cn3)C(=O)N[C@@H](CC(C)C)C(=O)N3CSC[C@H]3C(N)=O)C(C)C)c12 [LW01183] | 
13.5 nM |  |  |  |  |  |  |  |  |  |  |  |  |  |  |  |  |  | Cc1cccc2c(C[C@H](NC(=O)[C@H](CCC(N)=O)NC(=O)[C@H](N)Cc3ccccc3)C(=O)N[C@@H](C)C(=O)N[C@H](C(=O)NCC(=O)N[C@@H](Cc3c[nH]cn3)C(=O)N[C@@H](CC(C)C)C(=O)N3CSC[C@H]3C(N)=O)C(C)C)c[nH]c12 [LW02007] | 
11.5 nM |  |  |  |  |  |  |  |  |  |  |  |  |  |  |  |  |  | Cc1[nH]c2ccccc2c1C[C@H](NC(=O)[C@H](CCC(N)=O)NC(=O)[C@H](N)Cc1ccccc1)C(=O)N[C@@H](C)C(=O)N[C@H](C(=O)NCC(=O)N[C@@H](Cc1c[nH]cn1)C(=O)N[C@@H](CC(C)C)C(=O)N1CSC[C@H]1C(N)=O)C(C)C [LW02009, D-Phe-Gln-2-Me-Trp-Ala-Val-Gly-His-Leu-Thz-NH2] | 
166 nM |  |  |  |  |  |  |  |  |  |  |  |  |  |  |  |  |  | CC(C)C[C@H](NC(=O)[C@H](Cc1c[nH]cn1)NC(=O)CNC(=O)[C@@H](NC(=O)[C@H](C)NC(=O)[C@H](Cc1c[nH]c2ncccc12)NC(=O)[C@H](CCC(N)=O)NC(=O)[C@H](N)Cc1ccccc1)C(C)C)C(=O)N1CSC[C@H]1C(N)=O [LW02013] | 
53.1 nM |  |  |  |  |  |  |  |  |  |  |  |  |  |  |  |  |  | CC(C)C[C@H](NC(=O)[C@H](Cc1c[nH]cn1)NC(=O)CNC(=O)[C@@H](NC(=O)[C@H](C)NC(=O)[C@H](Cc1csc2ccccc12)NC(=O)[C@H](CCC(N)=O)NC(=O)[C@H](N)Cc1ccccc1)C(C)C)C(=O)N1CSC[C@H]1C(N)=O [LW02015] (HELM PEPTIDE1{[dF].Q.[O=C([C@H](Cc1csc2ccccc12)N[*:1])[*:2]].A.V.G.H.L.[O=C([C@@H]1CSCN1[*:1])[*:2]].[am]}$$$$V2.0) | 
202 nM |  |  |  |  |  |  |  |  |  |  |  |  |  |  |  |  |  | CC(C)C[C@H](NC(=O)[C@H](Cc1c[nH]cn1)NC(=O)CNC(=O)[C@@H](NC(=O)[C@H](C)NC(=O)[C@H](Cc1c[nH]c2ccccc12)NC(=O)[C@H](CCC(N)=O)NC(=O)[C@H](N)Cc1ccccc1)C1CC1)C(=O)N1CSC[C@H]1C(N)=O [LW02016] | 
